Measurements as given in paper PMC10292217, “Gene-nutrient interactions that impact magnesium homeostasis increase risk for neural tube defects in mice exposed to dolutegravir” (Frontiers in Cell and Developmental Biology, 2023).
Read-outs that look alike come from different tables or passages of the source. Marks after values point to notes of the source that are not given here.

Key:
C57BL/6J mice [1] = assay: DTG-NTD susceptibility, embryo phenotyping on GD 9.5, C57BL/6J dams; type: in vivo, mouse
Source text: (§1) Breeding colonies and experimental mice were housed in Thoren micro-isolator cages with autoclaved corncob bedding and maintained on a 12-h light-dark cycle in climate-controlled AAALAC-accredited animal facilities at Creighton University. Mice were given ad libitum access to autoclaved water and pelleted irradiated rodent chow. For timed matings, nulliparous female mice were placed with a male overnight (1 male:2-3 females). The presence of a vaginal plug the next morning was considered GD 0.5. Plugged females were weighed, placed into a separate cage, and randomly assigned to a treatment group. All animal procedures were performed in accordance with the Public Health Service (PHS) policy on Humane Care and Use of Laboratory Animals and approved by the Creighton University Institutional Animal Care and Use Committee (IACUC).
(§2) Dolutegravir (CAS 1051375-16-6, GSK1349572) was purchased from MedKoo Biosciences (Morrisville, NC). Pregnant mice were dosed with vehicle (dimethylsulfoxide: Solutol®: 50 mM N-methylglucamine in 3% mannitol [1:1:8, v:w:v]) ([Moss et al., 2015]) or DTG (500 mg/kg or 750 mg/kg) by daily oral gavage beginning on GD 0.5 and continuing until the day of sacrifice (GD 9.5). All treatments were administered in a volume of 0.1 mL/10 g bodyweight (bwt).
(§3) The SWV and LM/Bc breeding colonies have been maintained on Envigo Rodent Chow #8904 (a soy protein-based irradiated diet) for >20 years. C3H/HeJ and C57BL/6J mice (6–10 weeks old) were immediately placed on Envigo #8904 upon arrival at Creighton University and were maintained on this diet for a minimum of 1 month prior to analysis of basal plasma and urine cations. The National Research Council (NRC) estimate for the minimum Mg^2+ requirement in adult mice is […] of diet (0.05%). Magnesium in standard rodent diets ranges between […]; the Envigo #8904 soy diet contains .3% Mg^2+ by weight ([…] the NRC requirement) and was therefore considered a ‘high’ Mg^2+ diet. Sources of Mg^2+ in the soy diet include magnesium oxide (∼20%) and Mg^2+ found naturally in grain ingredients (∼80%); it was therefore not possible to remove Mg^2+ to create a soy-based version that was Mg^2+ deficient. To test the hypothesis that low maternal plasma Mg^2+ prior to conception would increase susceptibility to DTG-induced NTDs, it was necessary to switch to casein-based purified ingredient diets with defined levels of Mg^2+ added back. The following casein-based purified ingredient diets were selected as experimental diets: TD.120,574 high Mg^2+ diet (.3% Mg^2+ oxide added to match the .3% high Mg^2+ soy-based diet); TD.98341 control Mg^2+ diet with 0.05% Mg oxide added back to match the NRC requirement; and TD.93106 Mg^2+-deficient diet (<.003%, no Mg^2+ added back). The purified casein diets met or exceeded the NRC requirements for all other minerals and vitamins, including folic acid (Supplementary Table S1: Diet Comparison). Thus, the 4 experimental diets were as follows: 1) high Mg^2+ (.3%) soy diet; 2) high Mg^2+ ([…]) casein diet; 3) control Mg^2+ (.05%) casein diet; and 4) deficient Mg^2+ (<.003%) casein diet. […] Our initial DTG teratology studies were performed in mice on the high Mg^2+ soy diet. However, our objective in the second set of experiments was to reduce pre-conception plasma Mg^2+ levels prior to DTG exposure. To accomplish this objective, weaned female mice were placed on either the high Mg^2+ casein diet or one of the 2 casein-based experimental diets with reduced Mg^2+ (control or deficient) for a minimum of 2 weeks. After this minimum period of acclimation to the experimental casein-based diets, blood and urine samples were collected for Inductively Coupled Plasma Mass Spectrometry (ICP-MS) determination of Mg^2+ (and other cations).
(§4) Pregnant dams were anesthetized with isoflurane and sacrificed by cervical dislocation on GD 9.5. […]

Whole rat embryos = test system: Whole rat embryos; set-up: method as in Posobiec et al., 2021; details: exposure GD 9-11; concentrations approx. 2 times plasma concentration at MRHD; ref Posobiec et al., 2021; cited from earlier work
C57BL/6J mice [2] = test system: C57BL/6J mice; set-up: method as in Mohan et al., 2021; details: ref Mohan et al., 2021, cited from earlier work
FOLR1 = test system: FOLR1; set-up: method as in Gilmore et al., 2022; details: human choriocarcinoma cells; ref Gilmore et al., 2022; cited from earlier work
LM/Bc mice = assay: DTG-NTD susceptibility, embryo phenotyping on GD 9.5, LM/Bc dams; type: in vivo, mouse
Source text: as §1, §2, §3, §4

rats = details: 2020, cited from earlier work
[3] = test system: human embryonic stem cell (hESC) lines; set-up: method as in Smith et al., 2022; details: 2 different hESC lines; ref Smith et al., 2022; cited from earlier work
[4] = high Mg2+ (0.3%) soy diet, DTG 750 mg/kg/d oral GD 0.5-GD 9.5, average % (SD)
[5] = high Mg2+ (0.3%) soy diet, DTG 750 mg/kg/d oral GD 0.5-GD 9.5, mean (SD)
[6] = high Mg2+ (0.3%) soy diet, DTG 750 mg/kg/d oral GD 0.5-GD 9.5, mean (SD) per litter
[7] = control Mg2+ (0.05%) casein diet, DTG500
[8] = control Mg2+ (0.05%) casein diet, DTG750
[9] = high Mg2+ (0.3%) casein diet, DTG750
[10] = high Mg2+ soy diet, DTG500, n = 7 litters

SMILES: C[C@@H]1CCO[C@H]2Cn3cc(C(=O)NCc4ccc(F)cc4F)c(=O)c(O)c3C(=O)N12 [DTG, Dolutegravir]
- Affected litters % (C57BL/6J mice [1]; high Mg2+ (0.3%) soy diet, DTG 750 mg/kg/d oral GD 0.5-GD 9.5): 0.0%
- Dev delay/implants, index value (C57BL/6J mice [1]; [4]): 1.9% (4.15)
- NTDs/embryos, index value (C57BL/6J mice [1]; [4]): 0.0% (0.00)
- NTDs/implants, index value (C57BL/6J mice [1]; [4]): 0.0% (0.00)
- Resorptions/implants, index value (C57BL/6J mice [1]; [4]): 5.3% (9.30)
- Implants per litter (C57BL/6J mice [1]; [5]): 9.80 (1.48)
- Resorptions per litter (C57BL/6J mice [1]; [5]): 0.50 (0.85)
- Dev. delayed (C57BL/6J mice [1]; [6]): 0.20 (0.42)
- NTDs (C57BL/6J mice [1]; [6]): 0.00 (0.00)
- Total viable embryos (C57BL/6J mice [1]; [6]): 9.30 (1.77)
- NTDs observed (C57BL/6J mice [1]; high Mg2+ soy diet, DTG750, n = 10 litters): No NTDs
- developmental toxicity or NTDs (Whole rat embryos): no developmental toxicity or NTDs were observed
- NTD-affected litters (C57BL/6J mice [2]; 2.5 mg/kg/d oral DTG co-formulated with TDF and FTC from GD 0.5, folate-sufficient diet, 5/150 litters): 3.3%
- NTDs observed (C57BL/6J mice [2]; 5x higher dose, n = 111 litters): no NTDs were observed
- FOLR1-mediated uptake (FOLR1): reduced
- NTD-affected litters (LM/Bc mice; [7]): 62%
- NTD-affected litters / litters examined (LM/Bc mice; [7]): 8/13
- exencephalic embryos per litter (LM/Bc mice; [7]): 1 to 5
- total NTDs (LM/Bc mice; control Mg2+ (0.05%) casein diet, DTG500, of 116 implants): 19
- NTD-affected litters (LM/Bc mice; [8]): 85%
- NTD-affected litters / litters examined (LM/Bc mice; [8]): 11/13
- exencephalic embryos per litter (LM/Bc mice; [8]): 1 to 6
- total NTDs (LM/Bc mice; control Mg2+ (0.05%) casein diet, DTG750, of 105 implants): 33
- NTD-affected litters (LM/Bc mice; [9]): 19%
- exencephalic embryos per affected litter (LM/Bc mice; [9]): 1
- mean rate NTDs/litter (LM/Bc mice; [9]): 2%
- NTD-affected litters / litters examined (LM/Bc mice; high Mg2+ (0.3%) casein diet, DTG750, 90 implants total): 3/16
- Dev delay/implants, index value (LM/Bc mice; [4]): 8.1% (17.76)
- NTDs/embryos, index value (LM/Bc mice; [4]): 20.9% (23.65)^**
- NTDs/implants, index value (LM/Bc mice; [4]): 17.7% (20.63)^**
- Resorptions/implants, index value (LM/Bc mice; [4]): 11.5% (15.75)
- Implants per litter (LM/Bc mice; [5]): 8.74 (2.47)
- Resorptions per litter (LM/Bc mice; [5]): 0.95 (1.27)
- Dev. delayed (LM/Bc mice; [6]): 0.58 (0.96)
- NTDs (LM/Bc mice; [6]): 1.47 (1.74)^**
- Total viable embryos (LM/Bc mice; [6]): 7.79 (2.76)
- NTDs observed (LM/Bc mice; high Mg2+ soy diet, DTG 500 mg/kg/d (DTG500), n = 7 litters): No NTDs
- developmental delays (LM/Bc mice; [10]): no developmental delays
- implants (total) (LM/Bc mice; [10]): 71
- resorptions (total) (LM/Bc mice; [10]): 9
- viable embryos developmentally normal (total) (LM/Bc mice; [10]): 62
- NTD-affected litters / litters examined (LM/Bc mice; high Mg2+ soy diet, DTG750): 12/19
- NTDs/affected litter (LM/Bc mice; high Mg2+ soy diet, DTG750): 1–6
- total pups with exencephaly (LM/Bc mice; high Mg2+ soy diet, DTG750, out of 166 total implants): 28
- DTG-related maternal or developmental toxicity (rats; oral doses up to 1000 mg/kg/d, GD 6 to GD 17, ref Stanislaus et al.): no significant evidence
- NOAEL (rats; preclinical studies, ref Stanislaus et al.): 1000 mg/kg/day
- effect on hESC [3]: cytotoxicity and a dose-dependent loss of pluripotency
